Earlier results on 5 compounds are cited in patent US7955624B2, “Compositions and methods for increasing adipose metabolism, lipolysis or lipolytic metabolism via thermogenesis” (HHC Formulations Ltd., priority 2006, dated 2011).

The conditions of data set [1]: active treatment versus placebo.
For data set [2] the following is noted: mice.
The subject of data set [3] is bovine adrenal medulla.
For data set [4] the following is noted: mice. This is another data set of the same source.
Test in data set [5]: not given
The source holds these as a separate data set.

For the compound `O=C(O)c1cccnc1` [Niacin, nicotinic acid], in data set [1], the “high-density lipoprotein cholesterol (HDL-C)” value is on record as “increase”, the “low-density lipoprotein cholesterol (LDL-C)” value is listed as “decrease”, the total cholesterol entry is “decrease” and the triglyceride levels entry was “decrease”.
On to `Cn1c(=O)c2c(ncn2C)n(C)c1=O` [caffeine], for which, under “humans”, the basal metabolic rate result is on record as “increase the basal metabolic rate”. For the same compound, under “obese women, caffeine supplementation”, the weight loss entry is recorded as “Significant weight loss”.
`CN(C)CCO` [deanol, dimethylaminoethanol]: the “plasma and tissue levels of choline” value in data set [2] is reported as “increase”.
Consider evodiamine, for which the “secretion of adrenergic signaling molecules” value in data set [3] is listed as “increase the secretion”. Further, in data set [4], the body fat result is recorded as “decrease body fat”, the energy expenditure entry is “increase energy expenditure” and the lipid mobilization result is listed as “increase”.
Regarding `O=P(O)(O)O[C@H]1[C@H](OP(=O)(O)O)[C@@H](OP(=O)(O)O)[C@H](OP(=O)(O)O)[C@@H](OP(=O)(O)O)[C@H]1OP(=O)(O)O` [inositol hexaphosphate, Inositol hexaphosphate], in data set [5] (0.02% to 10% phytic acid in a high sucrose diet), the “reducing triglycerides, cholesterol and lipogenic enzymes” value was “dose-dependent response”. The “food intake and growth” value in data set [5] (highest dose, 10% phytic acid) is recorded as “reduction”.
